We go through three compounds from patent US20080182830A1, “Agent for Treatment and Prevention of Endometriosis and Uterine Adenomyosis” (priority 2005, published 2008).

Assay [1] concerns uterine adenomyosis. Put plainly: Therapy of uterine adenomyosis (1), single patient. It counts as in vivo, human. The text has this: A patient having uterine adenomyosis was subjected to the treatment using the therapeutic agent according to the present invention. The patient had been subjected to injection of Leuplin, which was a therapeutic drug for endometriosis at one time per a month continuously for six months. However, the disease was not cured. Then, the uterus was enlarged to have a size corresponding to the third month of pregnancy, and menstrual pain was severe, and a menstrual bleeding was abundant. Moreover, CA125 in the blood indicated 441 units (the normal units are 35 units or less) and CA602 indicated 1025 units (the normal value is 63 units or less). The indicated values were abnormally high.
The menstrual pain and the hypermenorrhea disappeared. Moreover, CA125 in the blood was reduced to be 38 units and CA602 was reduced to 53 units after 60 days from the initiation of the administration. Accordingly, it can be said that the uterine adenomyosis was fully cured.

Assay [2] concerns uterine adenomyosis. Kind of assay: Therapy of uterine adenomyosis (2), patient series with intrauterine devices. It is filed as in vivo, human. On the procedure: An intrauterine device (IUD) containing 600 μg to 900 μg of 3-ethylpyridine was inserted for 6 months […] of each of patients (12 cases) having uterine adenomyosis recurring after the nasal administration or injection of GnRH analogs.

For assay [3], the system named is deep endometriosis. Put plainly: Therapy of deep endometriosis (1), single patient, vaginal rings. It counts as in vivo, human. The text has this: A patient suffered from intensive menstrual pain by deep endometriosis was subjected to the treatment using the therapeutic agent according to the present invention.
The subject of assay [4] is chorioallantoic membrane of chicken. As to conditions: Lin J. et al. 2002; G. Melkonian et al. 2004; cited from earlier work.
For the next assay, the system named is vaginal endometriosis. Put plainly: Therapy of vaginal endometriosis, vaginal ring. It counts as in vivo, human. On the procedure:
A patient having endometriosis recurred after operation of the left ovary and Cul-de-Sac endometriosis was subjected to the treatment using the therapeutic agent according to the present invention. In the patient with an induration about 7 cm×about 5 cm in a deep right posterior fornix of the vagina. […] Moreover, menstrual pain, extramenstrual pain, severe lower abdominal pain, defecation pain, and coital pain were recognized. Accordingly, the above-described doughnut-type ring containing 9 mg 3-ethylpyridine was inserted into the posterior vaginal fornix. As a result, four weeks after the insertion, the coital pain, the defecation pain, the extramenstrual lower abdominal pain and low back pain disappeared, and the menstrual pain was reduced. The induration at the right posterior fornix of the vagina was scaled down to 4 cm×2 cm. Then, by continuous treatment, the induration at the right posterior fornix of the vagina was further scaled down to have 2 cm×1 cm. In addition to the above case, with respect to each of patients of other two cases having endometriosis, the pathological endometriosis was confirmed by biopsy and then, a vaginal ring containing 8 to 10 mg of 3-ethylpyridine was inserted into the vagina.

In assay [5] the test system is deep endometriosis. Kind of assay: Therapy of deep endometriosis (2), 18 cases, vaginal ring. It counts as in vivo, human. The protocol:
A vaginal ring containing 8 to 10 mg of 3-ethylpyridine was inserted into the vagina of each of deep endometriosis patients (18 cases) for 3 months. As a result, disappearance of pressure pain and induration in Cul-de-Sac was recognized in 9 cases, and improvement thereof was recognized in 7 cases, and nullity thereof was recognized in 2 cases. The menstrual pain disappeared in 4 cases, and improved in 13 cases and null in only one case. A coital pain disappeared in 10 cases and a defecation pain was improved in 7 cases.

The test system of the next assay is ovarian chocolate cyst. Kind of assay: Therapy of ovarian chocolate cyst, injection into aspirated cyst. It counts as in vivo, human. The source says:
A patient having ovarian chocolate cyst was subjected to the treatment using the therapeutic agent according to the present invention. In this patient, by transvaginal ultrasonic diagnosis, the cyst having a diameter of 6 cm was recognized in Cul-de-Sac. Moreover, CA125 in the blood indicated 1522 units and CA602 indicated 352 units (the normal value is 63 units or less). The indicated values were abnormally high. It was confirmed that the distance from the vaginal fornix to cyst was within 1 cm, and under observation with a transvaginal ultrasonography, the cyst content was punctured with a needle from the posterior vaginal fornix and was aspirated. Then, the 2 mL ethanol solution containing 2 mg of 3-ethyl pyridine was injected. As a result, the ovarian chocolate cyst disappeared four weeks after the injection. The uterus was scaled down to 2.5 cm. The menstrual pain disappeared. Moreover, CA125 in the blood was lowered to be 52 units and CA602 was lowered to be 61 units.
In addition to the above case, patients of other 12 cases having chocolate cysts were subjected to the following treatment. That is, under a transvaginal ultrasonic guide, the ovarian chocolate cyst having a distance within 10 mm from the posterior vaginal fornix was punctured and the cyst content was aspirated and then the 3 mL ethyl ether solution containing 3 mg of 3-ethylpyridine was injected into the cyst. As a result, in all 12 cases, the ovarian chocolate cyst was scaled down, and at the same time, the menstrual pain disappeared in eight cases, and, improved in three cases. […] In addition, existence of malignant cells in the aspirated cystic content was denied by cytodiagnosis.

The mark [6] stands for this setting: vaginal ring 1,000 mg danazol for 6 months.
[7] abbreviates: doughnut-type ring 9 mg, four weeks after insertion.
The mark [8] stands for this setting: other two cases, vaginal ring containing 8 to 10 mg.
[9] abbreviates: IUD containing 600 μg to 900 μg, 6 months, 12 cases.
[10] abbreviates: vaginal ring 8 to 10 mg for 3 months.
The mark [11] stands for this setting: IUD-type device containing 825 μg.
The mark [12] stands for this setting: IUD-type device containing 825 μg inserted into the uterus.
The mark [13] stands for this setting: other 12 cases, 3 mL ethyl ether solution containing 3 mg.
Setting [14] is: single patient, 2 mL ethanol solution containing 2 mg injected.
Where [15] appears, read: vaginal ring 10 mg 3-ethylpyridine, after the danazol ring.

For the compound `CCNC(=O)[C@@H]1CCCN1C(=O)[C@H](CCCNC(=N)N)NC(=O)[C@H](CC(C)C)NC(=O)[C@@H](CC(C)C)NC(=O)[C@H](Cc1ccc(O)cc1)NC(=O)[C@H](CO)NC(=O)[C@H](Cc1c[nH]c2ccccc12)NC(=O)[C@H](Cc1c[nH]cn1)NC(=O)[C@@H]1CCC(=O)N1` [Leuplin, reference compound], the “disease (uterine adenomyosis) outcome” value in the assay on uterine adenomyosis [1] (patient, injection one time per month continuously for six months) is on record as “not cured”.

`C#C[C@]1(O)CC[C@H]2[C@@H]3CCC4=Cc5oncc5C[C@]4(C)[C@H]3CC[C@@]21C` [danazol, reference compound]: the uterine adenomyosis outcome in the assay with uterine adenomyosis [2] (earlier treatment with IUDs containing danazol, the 55 cases) was “not cured”. Also, in the assay with deep endometriosis [3] (patient, vaginal ring containing 1,000 mg danazol for 6 months, from 950 units), the “CA125 in the blood” value stood at 620 units. Besides, in the assay on deep endometriosis [3] (setting [6]), the menstrual pain entry is recorded as “reduced but not fully cured” and the “painful induration in Cul-de-Sac” value is reported as “not scaled down”.

With `CCc1cccnc1` [3-ethylpyridine], in assay [4], the “growth of chorioallantoic membrane of chicken” value is listed as “inhibits the growth”. Moreover, in the assay on vaginal endometriosis (setting [7]), the defecation pain entry is on record as “disappeared”; the “extramenstrual lower abdominal pain and low back pain” value is “disappeared”; the menstrual pain result was “reduced”. In the assay on vaginal endometriosis (setting [8]), the “menstrual pain and defecation pain” value is “disappeared in all the cases”; the vaginal endometriosis result is “disappeared macroscopically and histologically in all two cases”. Further, in the assay with vaginal endometriosis (patient, doughnut-type ring containing 9 mg in posterior vaginal fornix, four weeks after insertion), the coital pain entry is “disappeared”. In the assay with uterine adenomyosis [2] (setting [9]), the menstrual pain disappeared entry is reported as “eight”; the menstrual pain improved result was “four”; the therapeutic effect result is reported as “in all the cases, therapeutic effect was recognized”. In the assay with uterine adenomyosis [2] (IUD containing 600 μg to 900 μg, 6 months, 12 cases recurring after GnRH analogs), the hypermenorrhea disappeared result was “nine”. For the same compound, in the assay on deep endometriosis [5] (setting [10]), the coital pain disappeared came to 10 cases; the defecation pain improved stood at 7 cases; the “improvement of pressure pain and induration in Cul-de-Sac” value was 7 cases; the menstrual pain disappeared was found to be 4 cases. In addition, in the assay with deep endometriosis [5] (setting [10]), the menstrual pain improved is reported as 13 cases; the menstrual pain null entry is listed as “one”; the “nullity (no effect) on pressure pain and induration in Cul-de-Sac” value is listed as 2 cases. In the assay on deep endometriosis [5] (vaginal ring containing 8 to 10 mg for 3 months), the “disappearance of pressure pain and induration in Cul-de-Sac” value was determined as 9 cases. Further, the “CA125 in the blood” value in the assay on uterine adenomyosis [1] (IUD-type device 825 μg, after 60 days from initiation, before 441 units, normal 35 units or less) worked out at 38 units. In addition, in the assay on uterine adenomyosis [1] (IUD-type device 825 μg, after 60 days from initiation, before 1025 units, normal 63 units or less), the “CA602 in the blood” value amounted to 53 units. Besides, in the assay on uterine adenomyosis [1] (setting [11]), the “recurrence after suspension of the treatment” value was “not recognized” and the uterine adenomyosis outcome is “fully cured”. Moreover, in the assay with uterine adenomyosis [1] (setting [12]), the hypermenorrhea entry was “disappeared” and the menstrual pain result was “disappeared”. For the same compound, the “size of the uterine corpus” value in the assay on uterine adenomyosis [1] (IUD-type device containing 825 μg inserted into the uterus, six months after insertion, before: size of third month of pregnancy) is on record as “scaled down to a normal size”. Moreover, in the assay with ovarian chocolate cyst (setting [13]), the “cyst enlarged again after the six months” value is recorded as “three”, the menstrual pain disappeared entry is given as “eight” and the menstrual pain improved entry is “three”. In addition, in the assay on ovarian chocolate cyst (other 12 cases, 3 mL ethyl ether solution containing 3 mg injected into the cyst), the “ovarian chocolate cyst scaled down” value is 12 cases. Also, the “CA602 in the blood” value in the assay on ovarian chocolate cyst (single patient, 2 mg injected, before 352 units, normal 63 units or less) was 61 units. Further, the “CA125 in the blood” value in the assay on ovarian chocolate cyst (single patient, 2 mg injected, before 1522 units) came to 52 units. In addition, in the assay with ovarian chocolate cyst (setting [14]), the menstrual pain entry is listed as “disappeared” and the “uterus scaled down to” value is given as 2.5 cm. Besides, the ovarian chocolate cyst entry in the assay on ovarian chocolate cyst (single patient, 2 mL ethanol solution containing 2 mg injected after aspiration, four weeks after injection, cyst diameter 6 cm before) is reported as “disappeared”. For the same compound, the “ovary chocolate cyst outcome after repeated puncture and injection” value with ovarian chocolate cyst (the three cases enlarged again after six months) is “could be cured”. For the same compound, in the assay with deep endometriosis [3] (setting [15]), the “induration in Cul-de-Sac” value is on record as “not scaled down” and the menstrual pain entry is “further decreased”. In addition, the “CA125 in the blood” value in the assay on deep endometriosis [3] (vaginal ring containing 10 mg 3-ethylpyridine, after the danazol ring, in 3 months, from 620 units) came out at 250 units.
